{"source": "paper PMC3731320", "about": "“Identification of Benzimidazole Diamides as Selective Inhibitors of the Nucleotide-Binding Oligomerization Domain 2 (NOD2) Signaling Pathway” (PLoS ONE, 2013)", "key": {"300 human kinases": {"tested_on": "300 human kinases", "assay": "Kinase panel profiling (Reaction Biology Corp)", "type": "biochemical", "conditions": "compound at 1 μM; 10 μM ATP; any kinase of the panel", "procedure": "The original hit compound identified as a selective inhibitor of the NOD2 pathway was profiled for inhibitory activity against 300 human kinases (Reaction Biology Corp). The compound was tested in duplicate at a single concentration (1 μM) and was pre-incubated with enzyme for 20 minutes prior to addition of 10 μM ATP."}, "NOD2 [1]": {"tested_on": "NOD2", "assay": "ssRNA-induced IFNβ gene expression in 293/hNOD2 cells (real-time RT-PCR)", "type": "cell-based, human", "conditions": "GSK669 0.16–16 μM, RIP2 inhibitor 0.1 μM, mRNA after 6 hours", "procedure": "Cells seeded in 96-well plates at sub-confluent density (60,000/well) in DMEM + 1% FBS were transfected for 6 hours with ssRNA40 (1.25–6.67 μg/mL) using lipofectamine 2000 (Invitrogen) and RNA/liposome complexes prepared in Opti-MEM1 medium (Invitrogen). Induction of IFNβ gene expression was measured by real-time reverse transcription PCR (Taqman). RNA was isolated from cell extracts in Trizol (Invitrogen) using the RNeasy kit (Qiagen), and mRNA quantified following reverse transcription and PCR amplification using Taqman reverse transcription and Taqman PCR core reagent kits, pre-formulated primer/probe mixes and ABI 7900 sequence detection system (Applied Biosystems). Expression of IFNβ (ABI primer/probe mix Hs01077958_s1) was normalized to 18S ribosomal RNA."}, "NOD2 [2]": {"tested_on": "NOD2", "assay": "MDP-stimulated IL-8 release in 293/hNOD2 cells (HTRF)", "type": "cell-based, human", "conditions": "for IC50: Homo sapiens", "procedure": "(§1) After 24 hours the amount of IL-8 secreted into the medium was determined by homogeneous time resolved fluorescence (HTRF) assay by the direct addition of a 1:1 mix of europium cryptate and XL665-conjugated anti-IL-8 antibodies according to the manufacturer's instructions (Cisbio)."}, "NOD1 [3]": {"tested_on": "NOD1", "assay": "IL-8 secretion induced by NOD1 over-expression (BacMam) in HEK293T cells with or without iE-DAP", "type": "cell-based, human", "procedure": "(§2) Over-expression of NOD1 and NOD2 was achieved by transduction of HEK293T cells with either NOD1 or NOD2 BacMam recombinant baculoviruses. […] The effect of compounds on activator-independent NOD1/2 signaling was determined by 30 minute pre-treatment of cells (in 96-well plates seeded the previous day in DMEM high glucose with 10% FBS at 60,000 cells/well) followed by infection with NOD1 or NOD2 BacMam virus (MOI = 50). IL-8 was measured in conditioned medium after 24 hour incubation at 37 °C. To determine the effect of compounds on NOD1/2 activator-dependent IL-8 secretion in BacMam transduced HEK293T, the cells were infected with virus for 6 hours (MOI = 50), and following the removal of virus the cells were cultured over-night. The next day medium was again replaced and cells pre-treated with compound for 30 minutes followed by stimulation with either MDP (30 ng/mL) or iE-DAP (300 ng/mL). IL-8 was measured in conditioned medium by HTRF after 24-hour incubation at 37 °C."}, "NOD2 [4]": {"tested_on": "NOD2", "assay": "MDP-stimulated IL-8 release in HCT116 cells (endogenous NOD2)", "type": "cell-based, human", "procedure": "(§3) Compound activity on endogenous NOD1 and NOD2 receptors was determined by inhibition of either Tri-DAP or MDP-stimulated IL-8 release, respectively, using HCT116 human colon carcinoma cells. […] The cells were maintained in DMEM high glucose medium supplemented with 25 mM HEPES and 10% FBS. For assay, cells were seeded into 96 well plates (90,000 cells/well) in DMEM containing 1% FBS and pre-incubated with compounds for 1 hour before addition of either 1 μg/mL MDP or 25 μg/mL Tri-DAP. The level of IL-8 released into medium after 24-hour incubation was determined by HTRF assay as described above and fluorescence measured on an Envision model 2102 multilabel plate reader (Perkin Elmer)."}, "NOD1 [5]": {"tested_on": "NOD1", "assay": "Western blot of MAPK phosphorylation and IκBα in Tri-DAP-stimulated 293/hNOD1 cells", "type": "cell-based, human", "conditions": "GSK669 up to 30 μM", "procedure": "Confluent cultures of 293/-hNOD1 and -hNOD2 cells in 24-well plates were serum-starved over-night. The next day, cells were pre-incubated for 1 hour with compound and then stimulated for 1 hour with either 50 μg/mL Tri-DAP or 25 μg/mL MDP, respectively. Whole cell lysates were prepared in 1X cell lysis buffer (Cell Signaling Technology) containing additional inhibitors of aspartic, cysteine and serine proteases and aminopeptidases (protease inhibitor cocktail set III, EMD Biosciences) and inhibitors of multiple phosphatases (phosphatase inhibitor cocktail sets II and III, Sigma-Aldrich). The levels of phosphorylated and total p38, JNK, ERK1/2 and total IκBα were determined by immunoblotting of ∼20 μg protein per sample using the following primary antibodies: phospho-p38 MAPK (12F8, #4631), p38 MAPK (#9212), phospho-JNK (#9251), JNK (#9252) and IκBα (#9242) all purchased from Cell Signaling Technology, and phospho-ERK1/2 (sc-7383) and ERK1/2 (sc-94) antibodies from Santa Cruz Biotechnology."}, "NOD2 [6]": {"tested_on": "NOD2", "assay": "MDP-stimulated cytokine release in primary human monocytes", "type": "cell-based", "conditions": "primary human monocytes", "procedure": "[…] The concentration of IL-1β, IL-6 and TNFα in medium samples collected after 24-hour treatment was determined using the MS6000 human pro-inflammatory-4 II tissue culture kit (Meso Scale Discovery). The IL-8 concentration was determined by HTRF."}, "NOD1 [7]": {"tested_on": "NOD1", "assay": "Tri-DAP-stimulated IL-8 release in HCT116 cells (endogenous NOD1)", "type": "cell-based, human", "procedure": "as §3"}, "TLR2": {"tested_on": "TLR2", "assay": "Pam2CSK4-stimulated IL-8 release in 293/hTLR2 cells", "type": "cell-based, human", "conditions": "read-out: IC50 293/hTLR2 Pam2CSK4, IL-8 end-point, 3–10 ng/mL Pam2CSK4", "procedure": "as §1"}, "NOD1 [8]": {"tested_on": "NOD1", "assay": "iE-DAP-stimulated IL-8 release in 293/hNOD1 cells (HTRF)", "type": "cell-based, human", "conditions": "60 ng/mL iE-DAP", "procedure": "as §1"}, "NOD2 [9]": {"tested_on": "NOD2", "assay": "IL-8 secretion induced by NOD2 over-expression (BacMam) in HEK293T cells, activator-independent", "type": "cell-based, human", "procedure": "as §2"}, "[10]": {"conditions": "MOI 50, 24 hours, GSK669 5 μM, IKK inhibitor 0.5 μM"}}, "note": "“Also recorded” adds a separate entry of the source. Where two headings read alike, the source gives them in different places."}
{"smiles": "O=C(Cn1c(CCNC(=O)c2ccccc2)nc2ccccc21)Nc1ccc2c(c1)CCC2", "note": "[Compound 1, N-(2-(1-(2-((2,3-dihydro-1H-inden-5-yl)amino)-2-oxoethyl)-1H-benzo[d]imidazol-2-yl)ethyl)benzamide]", "values": [{"measurement": "inhibition of kinase activity, panel of 300 human kinases", "setting": "300 human kinases", "result": "≤ 50", "unit": "%"}, {"measurement": "effect on ssRNA-induced IFNβ expression", "setting": "NOD2 [1]", "result": "unaffected; also recorded: did not block"}, {"measurement": "IC50", "setting": "NOD2 [2]; read-out: IC50 293/hNOD2 MDP", "result": 3.2, "unit": "µM"}, {"measurement": "IC50", "setting": "NOD2 [2]; MDP-stimulated IL-8 production assay in 293/hNOD2 cells, Figures 4 and 5, read-out: NOD2 IC50", "result": "3.3 ± 1.6", "unit": "µM"}, {"measurement": "fold less active in the selectivity assays than on the NOD2 pathway", "setting": "NOD2 [2]; all selectivity assays vs NOD2 IC50", "result": "at least 10 fold"}, {"measurement": "effect on IL-8 secretion induced by NOD1 virus alone, single concentration", "setting": "NOD1 [3]; [10]", "result": "failed to block IL-8 secretion"}, {"measurement": "effect on IL-8 secretion induced by over-expression of NOD1", "setting": "NOD1 [3]; in the presence or absence of iE-DAP", "result": "had no effect"}, {"measurement": "IC50", "setting": "NOD2 [4]; Homo sapiens, HCT-116, IL-8 end-point, 1 μg/mL MDP", "result": "0.5 ± 0.2", "unit": "µM"}, {"measurement": "effect on IL-8 secretion induced by MDP in HCT116 cells", "setting": "NOD2 [4]; MDP 1 μg/mL, 1 hour pre-treatment", "result": "dose-dependently inhibited"}, {"measurement": "effect on Tri-DAP-induced p-p38, p-JNK and total IκBα", "setting": "NOD1 [5]", "result": "inactive"}, {"measurement": "effect on MDP-stimulated cytokine secretion, single concentration", "setting": "NOD2 [6]; compound 5 μM, MDP 0.1 μg/mL, IL-1β, IL-6, IL-8, TNFα, 24 hours", "result": "partial inhibition"}, {"measurement": "effect on release of IL-8, IL-6, TNFα and IL-1β in monocytes stimulated with MDP", "setting": "NOD2 [6]; dose response", "result": "dose-dependently inhibited"}, {"measurement": "IC50", "setting": "NOD1 [7]; Homo sapiens, HCT-116, IL-8 end-point, 25 μg/mL Tri-DAP", "result": "> 50", "unit": "µM"}, {"measurement": "effect on IL-8 secretion induced by Tri-DAP in HCT116 cells", "setting": "NOD1 [7]; Tri-DAP 25 μg/mL, 1 hour pre-treatment", "result": "had no effect"}, {"measurement": "IC50", "setting": "TLR2; listed as GSK669", "result": "> 30", "unit": "µM"}, {"measurement": "IC50", "setting": "TLR2; listed as GSK669 (1)", "result": "> 80", "unit": "µM"}, {"measurement": "IC50", "setting": "NOD1 [8]; Homo sapiens, read-out: IC50 293/hNOD1 iE-DAP, IL-8 end-point", "result": "> 30", "unit": "µM"}, {"measurement": "IC50", "setting": "NOD1 [8]; read-out: IC50 293/hNOD1 iE-DAP, IL-8 end-point, listed as GSK669 (1)", "result": "> 50", "unit": "µM"}, {"measurement": "effect on IL-8 secretion induced by NOD2 virus alone, single concentration", "setting": "NOD2 [9]; [10]", "result": "failed to block IL-8 secretion"}, {"measurement": "effect on IL-8 secretion induced by NOD2 over-expression", "setting": "NOD2 [9]; NOD2 virus 24 hours, GSK669 up to 50 μM", "result": "failed to inhibit this response"}]}
